In US8673856B2 (Anygen Co., Ltd., priority 2006, dated 2014):

Experiments:
[1] = biological target: T1, human N-type calcium channel (Homo sapiens, UniProt Q00975); assay type: cell-based
T1 construct: expressed in transfected cells; host or cells: HEK 293 (human embryonic kidney) cells

[2] = biological target: T1, human N-type calcium channel; assay type: cell-based; remark: listed apart in the source
[3] = tested on: ICR mice; settings: mouse, in vivo
[4] = tested on: ICR mice; settings: mouse, in vivo; remark: listed apart in the source
[5] = tested on: ICR mice; settings: mouse, in vivo; remark: listed apart in the source
[6] = tested on: ICR mice; settings: mouse, in vivo; remark: listed apart in the source
[7] = tested on: ICR mice; settings: mouse, in vivo, ip
[8] = tested on: ICR mice; settings: mouse, in vivo; remark: listed apart in the source
[9] = tested on: Sprague-Dawley male rats; settings: rat, in vivo
[10] = tested on: Sprague-Dawley male rats; settings: rat, in vivo; remark: listed apart in the source
[11] = tested on: Sprague-Dawley male rats; settings: rat, in vivo; remark: listed apart in the source
[12] = tested on: Sprague-Dawley male rats; settings: rat, in vivo, iv

T1 sequence (Q00975 whole entry, looked up): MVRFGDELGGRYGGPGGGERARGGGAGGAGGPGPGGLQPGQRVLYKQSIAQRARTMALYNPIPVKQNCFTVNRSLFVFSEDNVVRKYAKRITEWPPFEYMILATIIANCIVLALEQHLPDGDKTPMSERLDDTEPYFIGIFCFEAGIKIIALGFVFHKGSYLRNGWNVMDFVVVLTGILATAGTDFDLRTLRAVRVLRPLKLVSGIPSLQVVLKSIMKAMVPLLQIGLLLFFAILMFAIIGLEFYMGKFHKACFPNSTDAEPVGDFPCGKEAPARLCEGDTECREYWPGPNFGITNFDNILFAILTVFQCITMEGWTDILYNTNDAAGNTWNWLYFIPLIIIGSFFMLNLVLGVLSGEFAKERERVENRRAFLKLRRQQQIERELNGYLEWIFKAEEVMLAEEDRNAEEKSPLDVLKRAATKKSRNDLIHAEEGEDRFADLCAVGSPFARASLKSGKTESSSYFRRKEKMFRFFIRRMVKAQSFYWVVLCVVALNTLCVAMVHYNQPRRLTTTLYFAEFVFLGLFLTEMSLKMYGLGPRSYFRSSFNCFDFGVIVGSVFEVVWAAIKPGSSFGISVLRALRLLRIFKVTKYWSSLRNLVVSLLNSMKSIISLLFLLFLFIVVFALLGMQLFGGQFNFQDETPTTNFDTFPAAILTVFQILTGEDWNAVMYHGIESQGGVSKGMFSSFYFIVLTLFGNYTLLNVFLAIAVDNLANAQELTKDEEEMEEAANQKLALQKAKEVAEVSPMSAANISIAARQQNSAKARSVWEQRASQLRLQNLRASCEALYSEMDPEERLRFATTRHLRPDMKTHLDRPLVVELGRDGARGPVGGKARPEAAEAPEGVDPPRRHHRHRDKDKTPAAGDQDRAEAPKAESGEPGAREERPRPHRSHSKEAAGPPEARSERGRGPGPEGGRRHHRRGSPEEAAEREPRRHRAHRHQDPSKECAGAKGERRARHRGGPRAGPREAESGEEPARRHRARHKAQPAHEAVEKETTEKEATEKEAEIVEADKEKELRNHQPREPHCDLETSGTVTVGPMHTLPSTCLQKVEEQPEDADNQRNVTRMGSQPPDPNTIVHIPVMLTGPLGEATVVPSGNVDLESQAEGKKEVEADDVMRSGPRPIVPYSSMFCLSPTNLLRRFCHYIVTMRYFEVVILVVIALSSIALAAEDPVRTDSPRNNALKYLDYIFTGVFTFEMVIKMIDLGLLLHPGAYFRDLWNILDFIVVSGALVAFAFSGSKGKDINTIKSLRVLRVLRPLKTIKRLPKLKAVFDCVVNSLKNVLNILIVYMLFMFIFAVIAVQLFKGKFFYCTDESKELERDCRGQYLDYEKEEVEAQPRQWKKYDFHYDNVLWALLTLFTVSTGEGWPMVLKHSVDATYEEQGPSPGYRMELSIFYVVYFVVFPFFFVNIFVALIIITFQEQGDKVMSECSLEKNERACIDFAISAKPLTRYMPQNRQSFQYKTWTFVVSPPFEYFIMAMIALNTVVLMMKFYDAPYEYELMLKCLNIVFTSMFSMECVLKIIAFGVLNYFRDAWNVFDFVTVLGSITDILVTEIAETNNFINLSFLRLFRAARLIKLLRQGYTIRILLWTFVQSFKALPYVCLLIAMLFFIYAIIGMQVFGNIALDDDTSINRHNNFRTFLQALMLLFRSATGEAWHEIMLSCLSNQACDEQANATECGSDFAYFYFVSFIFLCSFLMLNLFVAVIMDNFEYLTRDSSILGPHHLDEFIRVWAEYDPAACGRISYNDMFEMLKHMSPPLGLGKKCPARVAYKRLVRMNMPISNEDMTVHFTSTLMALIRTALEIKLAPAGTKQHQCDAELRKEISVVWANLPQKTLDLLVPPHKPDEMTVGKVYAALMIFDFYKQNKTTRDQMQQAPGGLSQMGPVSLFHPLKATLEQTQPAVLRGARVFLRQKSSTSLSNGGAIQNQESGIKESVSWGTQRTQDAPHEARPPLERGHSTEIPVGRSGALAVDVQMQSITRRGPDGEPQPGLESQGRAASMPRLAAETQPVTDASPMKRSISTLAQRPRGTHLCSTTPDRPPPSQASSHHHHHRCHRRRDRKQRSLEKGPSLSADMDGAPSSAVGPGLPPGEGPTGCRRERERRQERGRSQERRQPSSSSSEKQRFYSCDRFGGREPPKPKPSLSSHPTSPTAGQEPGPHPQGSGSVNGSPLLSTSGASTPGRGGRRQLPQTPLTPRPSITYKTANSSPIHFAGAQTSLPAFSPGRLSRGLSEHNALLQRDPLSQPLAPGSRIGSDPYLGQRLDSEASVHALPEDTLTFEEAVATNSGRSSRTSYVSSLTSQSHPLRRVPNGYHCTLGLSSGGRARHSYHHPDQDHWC

Compound | Calcium channel blocking activity [1] | Recovery relative to MVIIA [2] | Current-voltage curve [1] | IC50 ([1]; read-out: IC50 from dose-inhibition curve) | Dissociation on washout [2] | Withdrawal latency, tail-flick test [3] | Withdrawal latency, plantar test [4] | Cumulative pain response, glutamate-induced [5] | Cumulative pain response, substance P-induced [6] | Count of writhing responses [7] | Cumulative pain response, formalin test [8] | Dose dependence of analgesic effect, formalin test [8] | Pain behaviors in the second phase, formalin test [8] | 50% withdrawal threshold, mechanical allodynia [9] | Analgesic effect on cold allodynia [10] | Analgesic effect on warm allodynia [11] | Mean arterial pressure (MAP) time course [12] | Arterial pressure after lapse of time [12]
CKGKGAKCSRIAYNCCTGSCRSGKC-NH2 [Chimera-MFMM] | significant calcium channel blocking activity | ~2 fold |  |  |  |  |  |  |  |  |  |  |  |  |  |  |  | 
CC[C@H](C)[C@@H]1NC(=O)[C@H](CCCNC(=N)N)NC(=O)[C@H](CO)NC(=O)[C@@H]2CSSC[C@@H]3NC(=O)[C@H](CO)NC(=O)CNC(=O)[C@H]([C@@H](C)O)NC(=O)[C@H](CSSC[C@H](N)C(=O)N[C@@H](CCCCN)C(=O)NCC(=O)N[C@@H]([C@@H](C)O)C(=O)NCC(=O)N[C@@H](CCCCN)C(=O)N[C@@H](CO)C(=O)N2)NC(=O)[C@H](CSSC[C@@H](C(N)=O)NC(=O)[C@H](CCCCN)NC(=O)CNC(=O)[C@H](CO)NC(=O)[C@H](CCCNC(=N)N)NC3=O)NC(=O)[C@H](CC(N)=O)NC(=O)[C@H](Cc2ccc(O)cc2)NC(=O)[C@H](C)NC1=O [FVIA, CKGTGKSCSRIAYNCCTGSCRSGKC-NH2] |  |  | curve inhibition without the horizontal curve shift | 11.5 ± 1.4 nM | better dissociation comparing MVIIA washout | not effective in increasing withdrawal latency | not effective in increasing withdrawal latency | significantly decreased cumulative pain response rate | significantly decreased cumulative pain response rate | significantly decreased | significantly decreased cumulative pain response rate in both the first phase and the second phase | analgesic effect in a dose-dependent manner | completely prevented pain behaviors in the second phase | elevate 50% withdrawal threshold in a dose dependent manner | exhibits analgesic effects on cold and warm allodynia | exhibits analgesic effects on cold and warm allodynia | much better recovery in MAP | 
CSCC[C@@H]1NC(=O)[C@H](CC(C)C)NC(=O)[C@H](CCCNC(=N)N)NC(=O)[C@H](CO)NC(=O)[C@@H]2CSSC[C@@H]3NC(=O)[C@H](CO)NC(=O)CNC(=O)[C@H]([C@@H](C)O)NC(=O)[C@H](CSSC[C@H](N)C(=O)N[C@@H](CCCCN)C(=O)NCC(=O)N[C@@H](CCCCN)C(=O)NCC(=O)N[C@@H](C)C(=O)N[C@@H](CCCCN)C(=O)N2)NC(=O)[C@H](CSSC[C@@H](C(N)=O)NC(=O)[C@H](CCCCN)NC(=O)CNC(=O)[C@H](CO)NC(=O)[C@H](CCCNC(=N)N)NC3=O)NC(=O)[C@H](CC(=O)O)NC(=O)[C@H](Cc2ccc(O)cc2)NC1=O [MVIIA, CKGKGAKCSRLMYDCCTGSCRSGKC-NH2] |  |  |  |  |  |  |  |  |  |  |  |  |  |  |  |  | sharp decrease in MAP at an initial stage and slow recovery in MAP | around 60 mmHg
